How the values were obtained:
BACE1 = assay: Screening for ALT-59 derivatives with BACE1 protein levels as indicator, U-87 MG cells; format: cell-based; conditions: 2 days, concentrations as indicated in FIGS. 15-17
Procedure: Additional experiments were performed to screen for compounds with higher potency and the ability to penetrate blood brain barrier using BACE1 protein levels as an indicator. U-87 MG cells were cultured as described previously and treated for 2 days with compounds at concentrations as indicated in FIGS. 15-17. Cells were then subjected to Western blotting analysis using anti-BACE1 and anti-beta-actin antibodies.

Phe508del-CFTR = Phe508del-CFTR localization, immunofluorescence microscopy, primary bronchial epithelial cells of a cystic fibrosis patient; format: cell-based, human; conditions: primary bronchial epithelial cells homozygous for Phe508del-CFTR, 2 μM, 3 days
Procedure: MDA-MB-231 and U-87 MG cells were cultured on cover slips under the conditions as described above. Cells were treated with DMSO or 4 μM ALT-59 for 3 days. Primary human bronchial epithelial cells isolated from cystic fibrosis patient homozygous for Phe508del-CFTR (Lifeline Cell Technology) were cultured on cover slips in BronchiaLife Cell Culture Medium supplemented with BrochiaLife LifeFactors Kit (Lifeline Cell Technology) and maintained at 37° C. in a CO2 incubator. Cells were treated with DMSO, 4 μM ALT-59, 2 μM ALT-308, or 4 μM ALT-410 for 3 days.
Cells were fixed in 4% paraformaldehyde for 15 minutes and permeabilized in 0.1% Triton X-100 for 2 minutes. After being blocked in 5% BSA (Sigma-Aldrich), cells were incubated with anti-CFTR antibody (Alomone Labs) followed by Alexa Fluor 488 anti-rabbit secondary antibody. Reagents were buffered in GIBCO PBS (Phosphate-Buffered Saline). Images were taken using Carl Zeiss LSM 510 Laser Scanning Microscope. Parameters were set identical for all images.

Structure (SMILES) | BACE1 protein expression (BACE1) | localization of Phe508del-CFTR on the plasma membrane (Phe508del-CFTR)
CC1(C)CC(=O)C2=C(C1)c1c(ccc3ccccc13)NC2c1ccc(Cl)c(Cl)c1 (stereo not shown) [ALT-204, 5-(3,4-dichlorophenyl)-2,2-dimethyl-2,3,5,6-tetrahydrobenzo[a]phenanthridin-4(1H)-one] | capable of lowering BACE1 expression | 
COc1ccc(C2Nc3c(ccc4ccccc34)C3=C2C(=O)CCC3)cc1Br (stereo not shown) [ALT-108, 6-(3-bromo-4-methoxyphenyl)-6,8,9,10-tetrahydrobenzo[c]phenanthridin-7(5H)-one] | capable of lowering BACE1 expression | 
CC1(C)CC(=O)C2=C(C1)c1c(ccc3ccccc13)NC2c1ccc(C(C)(C)C)cc1 (stereo not shown) [ALT-308, 5-(4-(tert-butyl)phenyl)-2,2-dimethyl-2,3,5,6-tetrahydrobenzo[a]phenanthridin-4(1H)-one] | capable of lowering BACE1 expression | increased localization of Phe508del-CFTR on the plasma membrane
CC1(C)CC(=O)C2=C(C1)c1c(ccc3ccccc13)NC2c1cccc(OC(F)(F)C(F)F)c1 (stereo not shown) [ALT-110, 2,2-dimethyl-5-(3-(1,1,2,2-tetrafluoroethoxy)phenyl)-2,3,5,6-tetrahydrobenzo[a]phenanthridin-4(1H)-one] | capable of lowering BACE1 expression | 
CC1(C)CC(=O)C2=C(C1)c1c(ccc3ccccc13)NC2c1ccc(C(F)(F)F)cc1 (stereo not shown) [ALT-212, 2,2-dimethyl-5-(4-(trifluoromethyl)phenyl)-2,3,5,6-tetrahydrobenzo[a]phenanthridin-4(1H)-one] | capable of lowering BACE1 expression | 
CC1(C)CC(=O)C2=C(C1)C(c1ccc3c(c1)OCO3)Nc1ccc3ccccc3c12 (stereo not shown) [ALT-201, 5-(benzo[d][1,3]dioxol-5-yl)-3,3-dimethyl-3,4,5,6-tetrahydrobenzo[a]phenanthridin-1(2H)-one] | capable of lowering BACE1 expression | 
Cn1ccnc1Sc1ccc(C2Nc3ccc4ccccc4c3C3=C2C(=O)CC(C)(C)C3)cc1[N+](=O)[O-] (stereo not shown) [ALT-324, 2,2-dimethyl-5-(4-((1-methyl-1H-imidazol-2-yl)thio)-3-nitrophenyl)-2,3,5,6-tetrahydrobenzo[a]phenanthridin-4(1H)-one] | capable of lowering BACE1 expression | 
COc1cc(C2Nc3ccc4ccccc4c3C3=C2C(=O)CC(C)(C)C3)ccc1OCC(=O)O (stereo not shown) [ALT-413, 2-(4-(2,2-dimethyl-4-oxo-1,2,3,4,5,6-hexahydrobenzo[a]phenanthridin-5-yl)-2-methoxyphenoxy)acetic acid] | capable of lowering BACE1 expression | 
O=C1CCCC2=C1C(c1ccc(O)c(O)c1)Nc1c2ccc2ccccc12 (stereo not shown) [ALT-317, 6-(3,4-dihydroxyphenyl)-6,8,9,10-tetrahydrobenzo[c]phenanthridin-7(5H)-one] | capable of lowering BACE1 expression | 
C=CCOc1ccc(C2Nc3ccc4ccccc4c3C3=C2C(=O)CC(C)(C)C3)cc1OC (stereo not shown) [ALT-409, 5-(4-(allyloxy)-3-methoxyphenyl)-2,2-dimethyl-2,3,5,6-tetrahydrobenzo[a]phenanthridin-4(1H)-one] | capable of lowering BACE1 expression | 
CC1(C)CC(=O)C2=C(C1)c1c(ccc3ccccc13)NC2c1ccc(Br)s1 (stereo not shown) [ALT-202, 5-(5-bromothiophen-2-yl)-2,2-dimethyl-2,3,5,6-tetrahydrobenzo[a]phenanthridin-4(1H)-one] | capable of lowering BACE1 expression | 
CC1(C)CC(=O)C2=C(C1)c1c(ccc3ccccc13)NC2c1cccc(OCc2cc3c(cc2Cl)OCO3)c1 (stereo not shown) [ALT-210, 5-(3-((6-chlorobenzo[d][1,3]dioxol-5-yl)methoxy)phenyl)-2,2-dimethyl-2,3,5,6-tetrahydrobenzo[a]phenanthridin-4(1H)-one] | capable of lowering BACE1 expression | 
CCCC(=O)Oc1ccc(C2Nc3ccc4ccccc4c3C3=C2C(=O)CCC3)cc1OC (stereo not shown) [ALT-408, 2-methoxy-4-(4-oxo-1,2,3,4,5,6-hexahydrobenzo[a]phenanthridin-5-yl)phenyl butyrate] | capable of lowering BACE1 expression | 
COC(=O)COc1ccc(C2Nc3ccc4ccccc4c3C3=C2C(=O)CCC3)cc1 (stereo not shown) [ALT-411, methyl 2-(4-(4-oxo-1,2,3,4,5,6-hexahydrobenzo[a]phenanthridin-5-yl)phenoxy)acetate] | capable of lowering BACE1 expression | 
CC1(C)CC(=O)C2=C(C1)c1cc3ccccc3cc1NC2c1ccc2c(c1)OCO2 (stereo not shown) [ALT-205, 5-(benzo[d][1,3]dioxol-5-yl)-2,2-dimethyl-2,3,5,6-tetrahydrobenzo[b]phenanthridin-4(1H)-one] | capable of lowering BACE1 expression | 
CC1(C)CC(=O)C2=C(C1)c1c(ccc3ccccc13)NC2c1cccc(C(F)(F)F)c1 (stereo not shown) [ALT-215, 2,2-dimethyl-5-(3-(trifluoromethyl)phenyl)-2,3,5,6-tetrahydrobenzo[a]phenanthridin-4(1H)-one] | capable of lowering BACE1 expression | 
O=C1CCCC2=C1C(c1ccc3c(c1)OCO3)Nc1c2ccc2ncccc12 (stereo not shown) [ALT-403, 6-(benzo[d][1,3]dioxol-5-yl)-6,8,9,10-tetrahydrobenzo[c][1,7]phenanthrolin-7(5H)-one] | capable of lowering BACE1 expression | 
CC1CCN(c2ccc(C3Nc4ccc5ccccc5c4C4=C3C(=O)CC(C)(C)C4)cc2[N+](=O)[O-])CC1 (stereo not shown) [ALT-322, 2,2-dimethyl-5-(4-(4-methylpiperidin-1-yl)-3-nitrophenyl)-2,3,5,6-tetrahydrobenzo[a]phenanthridin-4(1H)-one] | capable of lowering BACE1 expression | 
CC(C)c1ccc(C2Nc3ccc4ccccc4c3C3=C2C(=O)CC(C)(C)C3)cc1 (stereo not shown) [ALT-309, 5-(4-isopropylphenyl)-2,2-dimethyl-2,3,5,6-tetrahydrobenzo[a]phenanthridin-4(1H)-one] | capable of lowering BACE1 expression | 
CCN(CC)c1ccc(C2Nc3ccc4ccccc4c3C3=C2C(=O)CC(C)(C)C3)cc1 (stereo not shown) [ALT-318, 5-(4-(diethylamino)phenyl)-2,2-dimethyl-2,3,5,6-tetrahydrobenzo[a]phenanthridin-4(1H)-one] | capable of lowering BACE1 expression | 
C#CCOc1c(I)cc(C2Nc3ccc4ccccc4c3C3=C2C(=O)CC(C)(C)C3)cc1OC (stereo not shown) [ALT-402, 5-(3-iodo-5-methoxy-4-(prop-2-yn-1-yloxy)phenyl)-2,2-dimethyl-2,3,5,6-tetrahydrobenzo[a]phenanthridin-4(1H)-one] | capable of lowering BACE1 expression | 
Cc1ccc(C2Nc3ccc4ccccc4c3C3=C2C(=O)CC(C)(C)C3)cc1 (stereo not shown) [ALT-306, 2,2-dimethyl-5-(p-tolyl)-2,3,5,6-tetrahydrobenzo[a]phenanthridin-4(1H)-one] | capable of lowering BACE1 expression | 
CCOC(=O)COc1c(Cl)cc(C2Nc3ccc4ccccc4c3C3=C2C(=O)CCC3)cc1OC (stereo not shown) [ALT-406, ethyl 2-(2-chloro-6-methoxy-4-(4-oxo-1,2,3,4,5,6-hexahydrobenzo[a]phenanthridin-5-yl)phenoxy)acetate] | capable of lowering BACE1 expression | 
CSc1ccc(C2Nc3ccc4ccccc4c3C3=C2C(=O)CC(C)(C)C3)cc1 (stereo not shown) [ALT-311, 2,2-dimethyl-5-(4-(methylthio)phenyl)-2,3,5,6-tetrahydrobenzo[a]phenanthridin-4(1H)-one] | capable of lowering BACE1 expression | 
CCN(CC)c1ccc(C2Nc3ccc4ncccc4c3C3=C2C(=O)CC(C)(C)C3)cc1 (stereo not shown) [ALT-404, 8-(4-(diethylamino)phenyl)-11,11-dimethyl-8,10,11,12-tetrahydrobenzo[a][4,7]phenanthrolin-9(7H)-one] | capable of lowering BACE1 expression | 
CCOc1ccc(C2Nc3ccc4ccccc4c3C3=C2C(=O)CC(C)(C)C3)cc1OC (stereo not shown) [ALT-207, 5-(4-ethoxy-3-methoxyphenyl)-2,2-dimethyl-2,3,5,6-tetrahydrobenzo[a]phenanthridin-4(1H)-one] | capable of lowering BACE1 expression | 
COc1cc(C2Nc3ccc4ccccc4c3C3=C2C(=O)CC(C)(C)C3)cc2c1OCO2 (stereo not shown) [ALT-211, 5-(7-methoxybenzo[d][1,3]dioxol-5-yl)-2,2-dimethyl-2,3,5,6-tetrahydrobenzo[a]phenanthridin-4(1H)-one] | capable of lowering BACE1 expression | 
COc1ccc(C2Nc3ccc4ccccc4c3C3=C2C(=O)CC(C)(C)C3)cc1Br (stereo not shown) [ALT-307, 5-(3-bromo-4-methoxyphenyl)-2,2-dimethyl-2,3,5,6-tetrahydrobenzo[a]phenanthridin-4(1H)-one] | capable of lowering BACE1 expression | 
COc1cc(C2Nc3ccc4ccccc4c3C3=C2C(=O)CC(C)(C)C3)cc(Br)c1OC (stereo not shown) [ALT-208, 5-(3-bromo-4,5-dimethoxyphenyl)-2,2-dimethyl-2,3,5,6-tetrahydrobenzo[a]phenanthridin-4(1H)-one] | capable of lowering BACE1 expression | 
Cc1ccc(C2Nc3c(ccc4ccccc34)C3=C2C(=O)CC(C)(C)C3)cc1 (stereo not shown) [ALT-333, 9,9-dimethyl-6-(p-tolyl)-6,8,9,10-tetrahydrobenzo[c]phenanthridin-7(5H)-one] | capable of lowering BACE1 expression | 
